This is an account of results in the METLIN SMRT retention time set (Domingo-Almenara et al. 2019).

The structures appear in SMILES notation.

This series can be described thus: gradient 5% acetonitrile 3 min, to 50% in 2 min, to 85% in 15 min, held 3 min, 100 µL/min. The note with it: column: Zorbax Extend-C18 2.1 x 50 mm; eluents: water / acetonitrile, 0.1% formic acid. Put shortly:
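Values are retention times taken from adduct peaks that software picked and an analyst inspected. The pure standards were run as mixtures of ~100 molecules on HPLC linked to a quadrupole time-of-flight mass spectrometer, in positive and negative ionization mode. A Zorbax Extend-C18 column (2.1 × 50 mm, 1.8 μm) was used at 100 μL/min with water and acetonitrile, each including 0.1% formic acid.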
`CC(C)Oc1ccc(CNC(=O)C2CCN(S(=O)(=O)c3ccc4c(c3)NC(=O)CO4)CC2)cc1` returned an RP-LC retention time of 821 s.

The compound `Cc1cc2c(cc1C(=O)NCCc1c[nH]c3ccccc13)OCCCO2` showed an RP-LC retention time of 824 s. Under `CCCNC(=O)C1CCN(c2nc3ccc(-c4ccccc4)nc3s2)CC1` stands 906 s; under `COc1ccc(CNC(=O)C2CCCN(C(=O)c3[nH]c(C)c(C(=O)OC(C)C)c3C)C2)cc1` (stereo unspecified), 812 s; under `Cc1nc(-c2cc(S(=O)(=O)N3CCN(c4ccccc4Cl)CC3)c(C)s2)cs1`, 1240 s. Consider `CC(C)NC(=O)N1C[C@@H]2CCCN3CCC[C@@H]([C@H]23)[C@H]1CCCC(=O)NCC1CC1`, for which the RP-LC retention time was 578 s. Regarding `O=c1n(Cc2ccc(F)cc2)nc2ccc(S(=O)(=O)N3CCc4ccccc4C3)cn12`, the RP-LC retention time was 983 s.

`O=C(NCCc1csc(-c2ccccc2)n1)[C@H]1CCCN1C(=O)c1ccco1` registered an RP-LC retention time of 747 s. Then `COC(=O)C1=CN(c2cccc(F)c2)c2cc(F)ccc2S1(=O)=O`, with 869 s; and `O=S(=O)(c1ccc(-c2nnc(C3CCC3)o2)o1)N1CCCC1`, with 846 s. In turn, `Cc1nc(-c2csc(S(=O)(=O)N3CCCC(C(=O)Nc4ccccc4Cl)C3)c2)no1` (stereo unspecified) showed an RP-LC retention time of 975 s. `NC(=O)c1ccc2c(c1)CCN2C(=O)C1CCCC1` registered an RP-LC retention time of 698 s. In turn, `CC(C)c1ccc(NC(=O)CSc2ccc(NC(=O)C3CC3)nn2)cc1` registered an RP-LC retention time of 834 s.

With `CC(C)CCN1CCC(N2CCN(S(=O)(=O)c3ccc(F)cc3)CC2)C1=O` (stereo unspecified), the RP-LC retention time was found to be 662 s. Under `COc1ccc(-c2nnc(-c3ccc(C)c(S(=O)(=O)N4CCC(C)CC4)c3)o2)cc1OC` stands 1150 s; under `Cc1ccc(OCCC2CCNC2)cc1` (stereo unspecified), 646 s; under `Cc1nnc2ccc(S(=O)(=O)Nc3ccc(F)cc3)cn12`, 670 s.

For the compound `CCc1noc(-c2ccc(=O)n(CC(=O)Nc3ccc(F)cc3)c2)n1`, the RP-LC retention time came out at 1020 s.

Consider `Cc1nc(Cn2cccc2C(=O)NC2CCCCCC2)no1`, for which the RP-LC retention time turned out to be 879 s. Then `Cc1nc2c(c(N(C)CC(=O)N3CCCC3)n1)CCC2`, with 561 s.

As to `Clc1ccc(-c2noc3ncnc(N4CCN(c5ccccn5)CC4)c23)cc1`, the RP-LC retention time was found to be 697 s. Under `CCOC(=O)c1c(S(=O)(=O)N2CCC(C(=O)Nc3cccc(SC)c3)CC2)c(C)n(C)c1C` stands 907 s; under `Cc1nc(-c2cnccn2)n(CC(=O)Nc2cccc(Cl)c2)c(=O)c1C`, 792 s; under `Cc1cc(C)c(S(=O)(=O)N(CCN2CCCCC2C)CC(=O)N2CCNCC2)cc1C` (stereo unspecified), 601 s. On to `CC1CCN(c2ncc3c(n2)CCC(C(=O)NCCN2CCc4ccccc4C2)C3)CC1` (stereo unspecified), for which the RP-LC retention time turned out to be 654 s. Then `COc1cc(Cl)c(NC(=O)C2CCCN(c3nc4ccccc4nc3OC)C2)c(OC)c1` (stereo unspecified), with 1250 s. `CCOC(=O)c1csc(NC(=O)Cn2nc3c(cc2=O)CCCC3)n1` returned an RP-LC retention time of 727 s.

`CCn1nccc1-c1cccc(-c2noc(-c3ccccn3)n2)c1` registered an RP-LC retention time of 897 s. Under `COCCN1C(=O)c2ccccc2C(C(=O)NCCCc2ccccc2)C12CCCC2` (stereo unspecified) stands 944 s; under `CCc1nn2c(CNS(=O)(=O)c3ccc(Cl)cc3)c(-c3ccccc3)nc2s1`, 1000 s; under `CSc1cccc(NC(=O)Cn2ccn3nc(-c4ccccc4)c(CO)c3c2=O)c1`, 852 s.

`CCCN1CCN(C(=O)C2CCN(c3nc4cccnc4s3)CC2)CC1` gave an RP-LC retention time of 574 s. Under `CCc1cnc2c(c1OC)c(=O)n(Cc1ccccc1F)c(=O)n2C` stands 970 s; under `CCOC(=O)c1cn(Cc2ccc(F)cc2)c2nc(C)ccc2c1=O`, 854 s. Then `O=C(NCc1ccc(F)cc1)C(=O)NCC1OCCN1C(=O)c1cccs1` (stereo unspecified), with 702 s; and `COCCCNC(=O)CCc1c(-c2ccc(F)cc2)nc2ccccn12`, with 592 s.

Turning to `CCOC(=O)c1[nH]c2ccc(OC)cc2c1NC(=O)CN(C)C`, the RP-LC retention time was 575 s. Then `O=C(Cn1c(=O)c2cccn2c2ccc(F)cc21)NC1CC1`, with 685 s. Then `Cc1cc(NC(=O)C2CCCN2S(=O)(=O)c2ccc(Cl)s2)n(C(C)C)n1` (stereo unspecified), with 776 s; and `Nc1nnc(-c2ccc(Br)cc2)o1`, with 647 s; and `CCn1c(C(=O)NCCc2ccc(OC)c(OC)c2)cc2sc(Cl)cc21`, with 1030 s.

Take `CC#CCOC(=O)c1c(C)nc2sc3c(c2c1N)CCC(O)C3` (stereo unspecified): the RP-LC retention time is 662 s. For the compound `Fc1cccc(N2CC3(CCN(Cc4ccncc4F)CC3)C2c2ccccc2)c1` (stereo unspecified), the RP-LC retention time turned out to be 650 s. Under `CC1CCc2[nH]nc(C(N)=O)c2C1` (stereo unspecified) stands 614 s; under `O=C1CCCN1CCCN1C(=O)[C@H]2CN(Cc3ccc(F)cc3Cl)C[C@H]2C1=O`, 658 s. The compound `O=C(c1ccccn1)N1CCC2(CC1)NC(=O)N(Cc1ccccc1Cl)C2=O` displayed an RP-LC retention time of 716 s. Then `Cn1c(C(=O)N2CCN(c3ccccn3)CC2)cc2sccc21`, with 598 s. Then `CCN(CC)CCNC(=O)Cn1nc(C)c2nn(-c3ccc(F)cc3)c(-n3cccc3)c2c1=O`, with 675 s; and `COCC(=O)Nc1cnc(-c2ccc(OC)cc2)nc1`, with 724 s. Then `CCn1cc(CN2CCC(C(=O)NC(C)c3ccccc3)CC2)c2cc(OC)ccc21` (stereo unspecified), with 707 s; and `O=C(CN1CCC(c2nc(-c3ccc(F)cc3)no2)CC1)Nc1ccc2c(c1)OCO2`, with 720 s.

As to `CC(C)CNC(=O)CN1c2ccc(F)cc2-c2ccccc2S1(=O)=O`, the RP-LC retention time is 920 s. Under `CC(C)NC(=O)c1ccc(OCC2CCN(C(=O)CC(C)(C)C)CC2)cc1` stands 875 s; under `COC(=O)c1ccccc1NC(=O)c1ccc(-n2ccnc2)nn1`, 666 s. On to `CCn1cc(-c2nc(C(=O)N3CCN(c4ccc(OC)cc4)CC3)cs2)c2cccnc21`, for which the RP-LC retention time came out at 887 s. Under `CCC(=O)Nc1cccn2nc(CC)nc12` stands 657 s; under `CCc1ccccc1N1C(=O)c2c(C(=O)OC)ncn2CC1(C)C(=O)NC1CCCC1` (stereo unspecified), 733 s. Then `CN(C)S(=O)(=O)c1ccc2c(c1)N(CC(=O)NCCc1ccccc1)C(=O)C1CCCCN21` (stereo unspecified), with 918 s. Then `c1ccc(-c2noc(NCc3ccc4c(c3)OCO4)n2)cc1`, with 974 s; and `CCN(Cc1ccccc1)Cc1nc(-c2ccc(N3CCOCC3)nc2)no1`, with 772 s. For the compound `CCc1sc(NC(=O)Cc2ccc(C)cc2)nc1-c1ccccc1`, the RP-LC retention time is 1150 s. Then `O=c1[nH]cc(S(=O)(=O)N2CCCCC2)c(=O)[nH]1`, with 604 s.

As for `COCCNC(=O)c1csc(N2CCN(c3ccccc3)CC2)n1`, the RP-LC retention time came to 863 s. Then `Cc1ccc(-c2nnc(-c3nc(NCc4ccccn4)c4ccccc4n3)o2)cc1`, with 703 s.

On to `CCC(C(=O)NCCc1c[nH]c2ccc(C)cc12)n1c2ccccc2c2cnn(C)c(=O)c21` (stereo unspecified), for which the RP-LC retention time is 957 s. Under `CCOc1ccc(-c2cc3c(=O)n(Cc4nc(-c5ccc(Cl)cc5)no4)ncn3n2)cc1` stands 1140 s. Under `CN(CCNC(=O)c1ccc(-c2ccnc(N3CCCC3)n2)cc1)C1CCCCC1` stands 611 s; under `CCN1C(=O)CCc2cc(NS(=O)(=O)c3cccc(Br)c3)ccc21`, 833 s.

`COc1ccc(NC(=O)Nc2cccc(-c3cn4cccnc4n3)c2)cc1`: the RP-LC retention time worked out at 687 s. Then `CCOc1cc(C)c(C)cc1S(=O)(=O)Nc1ccc(Cl)cn1`, with 961 s.

Compound `CC12CC(NC(=O)N1c1cccc(C(=O)NCc3ccco3)c1)c1cc(Br)ccc1O2` (stereo unspecified) gave an RP-LC retention time of 846 s. Under `CCc1cc(C(=O)N2CCCC2)nc2cc(-c3ccsc3)nn12` stands 950 s. In turn, `COc1ccc(-c2nc(-c3ccc4ncn(C(C)C)c4c3)no2)c(OC)c1` returned an RP-LC retention time of 729 s. On to `O=C(C1CCOC1)N1CCC(CCOc2cccc(F)c2)CC1` (stereo unspecified), for which the RP-LC retention time amounted to 834 s.

As to `O=C(CSc1cc(N2CCN(c3ccccc3F)CC2)ncn1)Nc1ccc(Cl)cc1F`, the RP-LC retention time came to 1310 s. Take `COC(=O)c1ccc(NC(=O)C2CCCN2S(=O)(=O)c2ccc(F)cc2)cc1` (stereo unspecified): the RP-LC retention time was determined as 641 s. Under `CCOc1ccc(NC(=O)CSC2=C(C#N)C(c3cccs3)CC(=O)N2)cc1` (stereo unspecified) stands 844 s. Then `Cc1ccc(C)c(N2CCN(C(=O)c3cn4ccc(C)cc4n3)CC2)c1`, with 759 s. For the compound `CCOc1ccccc1NC(=O)N1CCC(C)(C(=O)NCc2ccc(F)cc2)CC1`, the RP-LC retention time came to 906 s. For `O=C(CSc1nnc2ccccn12)N1CCOCC1`, the RP-LC retention time was 551 s. With `Cc1nn(Cc2ccc(C(=O)N3CCN(c4ccccn4)CC3)cc2)c(C)c1S(=O)(=O)N(C)C`, the RP-LC retention time is 606 s.
